Measurements published in US9951149B2, “Reversible heparin molecules and methods of making and using the same” (The University of North Carolina at Chapel Hill, priority 2013, dated 2018).

Tested on: mice
Experiment: Mouse model of tail bleeding
Assay type: in vivo
Conditions: for effect of protamine on primary bleeding time after tail transection: protamine 15 mgkg^−1 i.v. (FIG. 4D)
Method: Under isoflurane anesthesia, mice (n=8 per group) were administered with PBS or Compound 5 (0.6 mgkg^−1) subcutaneously, 30 min later PBS or protamine (15 mgkg^−1) was administered via retro-orbital intravenous injection. After 5 minutes the distal part of the tail was transected at the constant diameter (1.5 mm), approximately 3-4 mm from the end. That results in both arterial and venous bleeding. […] The primary bleeding time was defined as the time to the first cessation of bleeding. Subsequently, time for each reinitiated bleeding was also recorded, and used to calculate total bleeding time. One mouse in Compound 5/protamine group received an inaccurate protamine injection and was excluded from the study. The blood collected in PBS was used to calculate total blood volume loss. Formic acid was added to samples (70:30 ratio) and absorbance was measured at 405 nm. A standard curve was generated by mixing […] of PBS with known amounts of blood. Statistical analysis between each group was performed by one-way ANOVA (GraphPad Prism Software, La Jolla, Calif., United States of America) followed by Bonferroni's multiple comparison test.

**Q.** For `CC(=O)NC1C(OC2C(C(=O)O)OC(OC3C(COS(=O)(=O)O)OC(OC4C(C(=O)O)OC(OC5C(COS(=O)(=O)O)OC(OC6C(C(=O)O)OC(OC7C(COS(=O)(=O)O)OC(OC8C(C(=O)O)OC(OC9C(COS(=O)(=O)O)OC(OC%10C(C(=O)O)OC(OC%11C(COS(=O)(=O)O)OC(OC%12C(C(=O)O)OC(Oc%13ccc([N+](=O)[O-])cc%13)C(O)C%12O)C(NS(=O)(=O)O)C%11O)C(OS(=O)(=O)O)C%10O)C(NS(=O)(=O)O)C9OS(=O)(=O)O)C(OS(=O)(=O)O)C8O)C(NS(=O)(=O)O)C7O)C(OS(=O)(=O)O)C6O)C(NS(=O)(=O)O)C5O)C(OS(=O)(=O)O)C4O)C(NS(=O)(=O)O)C3OS(=O)(=O)O)C(O)C2O)OC(COS(=O)(=O)O)C(O)C1O` (stereo not shown) [Compound 5], which “effect of protamine on blood loss after tail transection” value (mice, Compound 5 0.6 mgkg^−1 s.c., protamine 15 mgkg^−1 i.v.) is on record?
**A.** Its value is “reduced the blood loss”.

**Q.** What about the “effect of protamine on primary bleeding time after tail transection” value (mice, Compound 5 0.6 mgkg^−1 s.c.) of the same compound?
**A.** Its value is “protamine shortened the primary bleeding time”.

**Q.** And the “effect of protamine on primary bleeding time after tail transection” value (mice, Compound 5 0.6 mgkg^−1 s.c., listed as compound 5)?
**A.** The value was “significantly shortened the primary bleeding time”.

**Q.** And the “reversal of anti-Xa activity in an in vivo experiment” value (mouse tail bleeding model, protamine)?
**A.** Its value is “can be reversed”.
